The target of assay [1] is T1, Retinoic acid receptor RXR-beta (Homo sapiens) (UniProt P28702).
T1 sequence (whole entry): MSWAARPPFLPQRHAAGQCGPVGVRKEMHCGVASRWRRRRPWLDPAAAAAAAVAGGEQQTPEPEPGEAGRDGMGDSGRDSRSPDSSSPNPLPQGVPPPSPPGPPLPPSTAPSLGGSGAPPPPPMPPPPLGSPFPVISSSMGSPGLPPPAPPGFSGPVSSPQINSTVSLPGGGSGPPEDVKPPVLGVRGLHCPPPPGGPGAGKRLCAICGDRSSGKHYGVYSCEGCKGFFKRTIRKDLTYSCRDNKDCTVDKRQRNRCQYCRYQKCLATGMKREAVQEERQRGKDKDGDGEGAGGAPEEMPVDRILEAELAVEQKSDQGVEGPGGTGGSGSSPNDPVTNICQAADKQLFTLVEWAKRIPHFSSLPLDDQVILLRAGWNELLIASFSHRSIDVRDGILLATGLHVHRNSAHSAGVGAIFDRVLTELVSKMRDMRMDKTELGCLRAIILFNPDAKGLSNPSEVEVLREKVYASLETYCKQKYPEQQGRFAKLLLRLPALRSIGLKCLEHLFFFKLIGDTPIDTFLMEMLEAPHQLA
Kind of assay: Percent transcriptional activation relative to ATRA in CV-1 cells expressing Retinoid X receptor RXR beta. In kind it is functional, cell-based.

Assay [2] concerns the target T2, Retinoic acid receptor RXR-gamma (Homo sapiens, UniProt P48443).
T2 sequence (P48443 whole entry): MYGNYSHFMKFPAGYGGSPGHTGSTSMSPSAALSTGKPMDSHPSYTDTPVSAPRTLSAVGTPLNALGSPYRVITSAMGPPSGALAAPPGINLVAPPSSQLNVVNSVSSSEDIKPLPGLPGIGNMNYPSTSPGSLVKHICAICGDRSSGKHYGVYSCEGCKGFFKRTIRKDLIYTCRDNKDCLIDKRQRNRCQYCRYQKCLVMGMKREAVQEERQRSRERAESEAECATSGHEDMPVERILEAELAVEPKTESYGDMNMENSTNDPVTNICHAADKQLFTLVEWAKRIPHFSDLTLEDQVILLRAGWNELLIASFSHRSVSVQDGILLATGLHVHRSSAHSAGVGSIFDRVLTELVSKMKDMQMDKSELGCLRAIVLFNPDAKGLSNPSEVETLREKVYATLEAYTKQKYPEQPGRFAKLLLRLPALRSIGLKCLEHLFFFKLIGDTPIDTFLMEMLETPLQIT
Put plainly: Binding affinity towards recombinantly expressed Retinoic acid receptor RXR-gamma in baculoviral system, by using 5 nM [3H]targretin in a competitive binding assay.

For assay [3], the target named is T3, Retinoic acid receptor RXR-beta (Homo sapiens, UniProt P28702).
T3 sequence (P28702 whole entry): T1 sequence (whole entry)
Kind of assay: Transcriptional activity was evaluated in CV-1 cells transfected with expression vector for Retinoic acid receptor RXR-beta. The class given is functional, cell-based.

The target of assay [4] is T4, Retinoic acid receptor RXR-alpha (Homo sapiens, UniProt P19793).
T4 sequence (P19793 whole entry): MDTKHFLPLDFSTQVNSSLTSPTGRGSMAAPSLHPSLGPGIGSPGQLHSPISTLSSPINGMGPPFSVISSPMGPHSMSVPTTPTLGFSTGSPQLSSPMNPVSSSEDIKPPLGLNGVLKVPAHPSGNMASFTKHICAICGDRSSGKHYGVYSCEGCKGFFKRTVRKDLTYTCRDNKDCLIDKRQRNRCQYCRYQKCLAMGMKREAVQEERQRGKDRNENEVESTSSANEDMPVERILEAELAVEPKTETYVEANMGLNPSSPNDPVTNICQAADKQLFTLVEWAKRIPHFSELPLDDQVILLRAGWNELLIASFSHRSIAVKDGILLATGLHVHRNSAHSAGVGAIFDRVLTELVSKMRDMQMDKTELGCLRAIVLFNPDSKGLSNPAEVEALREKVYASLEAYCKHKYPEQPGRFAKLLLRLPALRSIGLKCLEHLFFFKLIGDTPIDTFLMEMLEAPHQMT
Put plainly: Binding affinity towards recombinantly expressed Retinoic acid receptor RXR-alpha in baculoviral system, by using 5 nM [3H]targretin in a competitive binding assay.

The target of assay [5] is T5, Retinoic acid receptor beta (Homo sapiens, UniProt P10826).
T5 sequence (P10826 whole entry): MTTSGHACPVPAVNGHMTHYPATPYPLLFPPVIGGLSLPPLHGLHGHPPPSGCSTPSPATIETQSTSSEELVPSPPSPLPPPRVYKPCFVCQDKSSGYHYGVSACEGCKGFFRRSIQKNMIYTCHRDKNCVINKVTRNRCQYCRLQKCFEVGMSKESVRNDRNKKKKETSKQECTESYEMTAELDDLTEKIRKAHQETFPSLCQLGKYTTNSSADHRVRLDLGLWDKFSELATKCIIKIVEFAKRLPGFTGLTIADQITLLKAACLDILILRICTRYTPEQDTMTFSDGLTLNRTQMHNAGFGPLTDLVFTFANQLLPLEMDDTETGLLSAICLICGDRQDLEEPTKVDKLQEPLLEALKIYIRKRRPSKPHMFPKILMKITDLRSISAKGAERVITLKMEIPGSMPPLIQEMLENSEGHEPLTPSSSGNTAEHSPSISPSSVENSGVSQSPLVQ
Kind of assay: Inhibition of [3H]ATRA binding to baculovirus expressed Retinoic acid receptor RAR beta.

Assay [6] addresses T6, Retinoic acid receptor alpha (Homo sapiens, UniProt P10276).
T6 sequence (P10276 whole entry): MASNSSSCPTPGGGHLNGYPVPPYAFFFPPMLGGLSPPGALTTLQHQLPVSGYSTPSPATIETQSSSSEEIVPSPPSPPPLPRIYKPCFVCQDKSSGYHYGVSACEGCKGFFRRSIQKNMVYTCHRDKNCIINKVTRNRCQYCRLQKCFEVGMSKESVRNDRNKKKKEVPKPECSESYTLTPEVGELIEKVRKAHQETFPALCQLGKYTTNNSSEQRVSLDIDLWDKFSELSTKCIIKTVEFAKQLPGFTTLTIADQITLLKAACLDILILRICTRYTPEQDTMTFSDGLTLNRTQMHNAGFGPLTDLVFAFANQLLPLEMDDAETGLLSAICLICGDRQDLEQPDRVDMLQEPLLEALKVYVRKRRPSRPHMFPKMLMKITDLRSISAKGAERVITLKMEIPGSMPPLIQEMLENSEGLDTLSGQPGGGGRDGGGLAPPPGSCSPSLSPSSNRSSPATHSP
Put plainly: Inhibition of [3H]ATRA binding to baculovirus expressed Retinoic acid receptor RAR alpha.

Assay [7] has as its target T7, Retinoic acid receptor beta (Homo sapiens) (UniProt P10826).
T7 sequence (whole entry): T5 sequence (P10826 whole entry)
Kind of assay: Percent transcriptional activation relative to ATRA in CV-1 cells expressing Retinoic acid receptor RAR beta. In kind it is functional, cell-based.

The target of assay [8] is T8, Retinoic acid receptor alpha (Homo sapiens) (UniProt P10276).
T8 sequence (whole entry): T6 sequence (P10276 whole entry)
Kind of assay: Percent transcriptional activation relative to ATRA in CV-1 cells expressing Retinoic acid receptor RAR alpha. The class given is functional, cell-based.

Assay [9] deals with T2, Retinoic acid receptor RXR-gamma. Kind of assay: Transcriptional activity was evaluated in CV-1 cells transfected with expression vector for Retinoic acid receptor RXR-gamma. In kind it is functional, cell-based.
Assay [10] deals with T9, Retinoic acid receptor gamma (Homo sapiens) (UniProt P13631).
T9 sequence (whole entry): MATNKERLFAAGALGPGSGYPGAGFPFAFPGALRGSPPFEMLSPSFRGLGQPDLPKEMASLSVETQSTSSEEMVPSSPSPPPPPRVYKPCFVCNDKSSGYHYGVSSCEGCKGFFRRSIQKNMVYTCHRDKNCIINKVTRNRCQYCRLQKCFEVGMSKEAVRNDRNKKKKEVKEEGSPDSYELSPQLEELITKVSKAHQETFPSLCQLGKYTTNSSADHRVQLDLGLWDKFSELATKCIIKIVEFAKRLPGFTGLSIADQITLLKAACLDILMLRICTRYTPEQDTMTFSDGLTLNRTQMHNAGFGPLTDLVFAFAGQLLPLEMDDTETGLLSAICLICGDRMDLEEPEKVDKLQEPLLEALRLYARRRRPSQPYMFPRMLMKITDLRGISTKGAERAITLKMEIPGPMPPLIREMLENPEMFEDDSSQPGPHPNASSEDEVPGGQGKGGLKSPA
Kind of assay: Percent transcriptional activation relative to ATRA in CV-1 cells expressing Retinoic acid receptor RAR gamma. In kind it is functional, cell-based.

The target in assay [11] is T3, Retinoic acid receptor RXR-beta. Kind of assay: Binding affinity towards recombinantly expressed Retinoic acid receptor RXR-beta in baculoviral system, by using 5 nM [3H]targretin in a competitive binding assay.
The target in assay [12] is T10, Retinoic acid receptor gamma (Homo sapiens, UniProt P13631).
T10 sequence (P13631 whole entry): T9 sequence (whole entry)
Put plainly: Inhibition of [3H]-ATRA binding to baculovirus expressed Retinoic acid receptor RAR gamma.

In assay [13] the target is T4, Retinoic acid receptor RXR-alpha. Kind of assay: Transcriptional activity was evaluated in CV-1 cells transfected with expression vector for Retinoic acid receptor RXR-alpha. In kind it is functional, cell-based.

Each structure is given as a SMILES string.

Consider `CO/N=C(\c1ccc(C(=O)O)cc1)c1cc2c(cc1C)C(C)(C)CCC2(C)C`, for which the Efficacy is 90% in assay [1], 5% in [7], 2% in [8] and 2% in [10]. The Ki was 8 nM in [2]; 9 nM in assay [4]; greater than 10000 nM in [5]; greater than 10000 nM in assay [6]; 8 nM in assay [11]; greater than 10000 nM in assay [12]. The EC50 in assay [3] is 10 nM; in [9] it was 4 nM; in assay [13] it was 5 nM.
